From patent US20190345202A1, “ANDROGEN RECEPTOR ANTISENSE OLIGONUCLEOTIDES” (OliPass Corporation, priority 2016, published 2019)
[C(1O2)] = PNA monomer with modified cytosine C(1O2), structure; [A(5)] = PNA monomer with modified adenine A(5), structure; {Fethoc} = Fethoc group on PNA N-terminus; {NH2} = C-terminal amide

How the values were obtained:
10-mer complementary DNA = assay: Tm of duplex between PNA and 10-mer complementary DNA (UV/Vis); type: binding; details: 4 μM PNA and 4 μM 10-mer DNA, aqueous buffer pH 7.16, 10 mM sodium phosphate, 100 mM NaCl
Method: The PNA derivatives in Table 1 were evaluated for their binding affinity for 10-mer DNAs complementarily targeting either the N-terminal or C-terminal. The binding affinity was assessed by Tm value for the duplex between PNA and 10-mer complementary DNA. The duplex between PNA derivatives in Table 1 and fully complementary DNAs show Tm values too high to be reliably determined in aqueous buffer solution, since the buffer solution tends to boil off during the Tm measurement.
Tm values were determined on an UV/Vis spectrometer as follows. A mixed solution of 4 μM PNA oligomer and 4 μM complementary 10-mer DNA in 4 mL aqueous buffer (pH 7.16, 10 mM sodium phosphate, 100 mM NaCl) in 15 mL polypropylene falcon tube was incubated at 90° C. for a minute and slowly cooled down to ambient temperature over several minutes. Then the solution was transferred into a 3 mL quartz UV cuvette equipped with an air-tight cap, and subjected to a Tm measurement at 260 nm on an Agilent 8453 UV/Visible spectrophotometer or a similar one as described in the prior art [PCT/KR2009/001256] or with minor modifications. The 10-mer complementary DNAs for Tm measurement were purchased from Bioneer (www.bioneer.com, Dajeon, Republic of Korea) and used without further purification.

C57BL/6 mice = assay: Hair growth in C57BL/6 mice upon topical administration (brightness score, hair weight); type: in vivo, mouse
Method: (§1) [Hair Removal and Grouping] In Day 0, 7 week old female C57BL/6 mice were anesthetized with zoletil/rompun, and the hair in the back was cut and removed with a clipper and wax, respectively. Mice with flawless (i.e. spotless) hair removal were selected and randomly assigned into three groups (7 animals per group).
[Topical Administration] The topical solutions of “ASO 1” were prepared by diluting a mother stock solution of “ASO 1” to 0.2 fM or 1 fM in aqueous 30% (v/v) ethanol supplemented with 3% (v/v) glycerin. About 100 μL of 0 (negative control), 0.2, or 1 fM “ASO 1” was topically administered in the back of each animal using a cotton ball in Days 3, 7, 10, and 14.
[Digital Image Scoring for Hair Growth] For scoring the hair growth, the animals were anesthetized and photographed by group as shown in FIG. 11A using a digital camera at a fixed value of exposure time and illumination. The digital image for the area of the hair removal for each animal was selected and digitally scored for the average brightness over the selected area using “ImageJ” program. Lower brightness score is taken as faster hair growth. Brightness scores of individual animals were combined by group, and subjected to statistical analysis by student's t-test. FIG. 11B summarizes the relative brightness scores of the ASO treated groups against the control group. The relative brightness score tended to decrease with days in the treatment groups. […] Thus, “ASO 1” was concluded to promote hair growth upon topical administrations at 1 fM.
[Scoring by Hair Weight] In Day 21, the animals were anesthetized and the hair in the back was cut with a clipper. The hair samples from individual animals were combined by group, and weighed to evaluate the hair growth between Day 0 and Day 21. The average hair weight was 70.5 mg/animal for the control group, 90.8 mg/animal for the 0.2 fM treatment group, and 94.4 mg/animal for the 1 fM treatment group. Thus “ASO 1” was concluded to promote hair growth upon topical administrations at 0.2 fM as well as 1 fM.
as §1, with “(10” for “(7”
[Topical Administration] The topical solutions of “ASO 5” were prepared by diluting a mother stock solution of “ASO 5” to 1, 5, or 25 fM in aqueous 30% (v/v) ethanol supplemented with 3% (v/v) glycerin. About 100 μL of each ASO solution or vehicle (negative control) was topically administered to in the back of an animal using a cotton ball in Days 3, 7, 10, 14 and 21.
Following the shaving in Day 21, the animals received a single topical administration of either vehicle or “ASO 5” at 1 fM, 5 fM, or 25 fM. In Day 53, the hair in the back was collected by shaving with a clipper to determine the total amount of hair growth between Days 21 and 53. The average hair weights of the 1 fM, 5 fM, and 25 fM groups were 1,630%, 1,450%, and 771% of the non-treated group, respectively. Thus “ASO 5” was concluded to promote hair growth upon topical administrations at 1 to 25 fM.
as §1, with “(9” for “(7”
[Topical Administration] The topical solutions of “ASO 10” were prepared by diluting a mother stock solution of “ASO 10” to 1, 5, or 25 fM in aqueous 30% (v/v) ethanol supplemented with 3% (v/v) glycerin. About 100 μL of each ASO solution or vehicle (negative control) was topically administered to in the back of an animal using a cotton ball in Day 2.

human AR mRNA = assay: qPCR (SYBR Green) of AR mRNA level in MCF7 cells; details: 5 hours

| Substance | Tm Value, 10-mer DNA against C-Terminal (10-mer complementary DNA) | Tm Value, 10-mer DNA against N-Terminal (10-mer complementary DNA) | average hair weight (C57BL/6 mice; 1 fM topical in Day 2, hair growth between Day 0 and Day 27) | average hair weight (C57BL/6 mice; 5 fM topical in Day 2, hair growth between Day 0 and Day 27) | average hair weight (C57BL/6 mice; 25 fM topical in Day 2, hair growth between Day 0 and Day 27) | brightness score vs non-treatment group (C57BL/6 mice; Day 27, 1 fM and 5 fM groups, topical in Day 2) | decrease of relative expression level of exons 4-6 (human AR mRNA; 1 zM to 1,000 zM) | average hair weight (C57BL/6 mice; 1 fM topical, hair growth between Day 0 and Day 21) | average hair weight (C57BL/6 mice; 1 fM, single topical administration after shaving in Day 21, hair growth between Days 21 and 53) | average hair weight (C57BL/6 mice; 5 fM topical, hair growth between Day 0 and Day 21) | average hair weight (C57BL/6 mice; 5 fM, single topical administration after shaving in Day 21, hair growth between Days 21 and 53) | average hair weight (C57BL/6 mice; 25 fM topical, hair growth between Day 0 and Day 21) | average hair weight (C57BL/6 mice; 25 fM, single topical administration after shaving in Day 21, hair growth between Days 21 and 53) | brightness score vs non-treated group (C57BL/6 mice; Day 17, 1 fM and 25 fM groups, topical in Days 3, 7, 10, 14 and 21) | exon message levels (exons 4-6) relative to negative control (human AR mRNA; 1 aM) | decrease of exon message levels (exons 4-6) (human AR mRNA; 100 zM) |
| --- | --- | --- | --- | --- | --- | --- | --- | --- | --- | --- | --- | --- | --- | --- | --- | --- |
| Fethoc-C(1O2)TT-A(5)CC-A(5)GG(6)-CA(5)A-NH2 (antisense CTTACCAGGCAA; N-Fethoc, C-terminal amide, chemistry not fully specified) [ASO 10] | 78.4 °C | 84.4 °C | 115 % of the non-treated group | 114 % of the non-treated group | 119 % of the non-treated group | significantly lower | 60-80% | – | – | – | – | – | – | – | – | – |
| Fethoc-C(1O2)TT-A(5)CC-A(5)GG-C(1O2)AA(5)-G-NH2 (antisense CTTACCAGGCAAG; all peptide nucleic acid (PNA), [C(1O2)] at 1, 10, [A(5)] at 4, 7, 12, 5' {Fethoc}, 3' {NH2}; peptide nucleic acid, written N to C terminus) [ASO 5] | 81.3 °C | 86.1 °C | – | – | – | – | – | 293 % of the negative control group | 1,630 % of the non-treated group | 306 % of the negative control group | 1,450 % of the non-treated group | 278 % of the negative control group | 771 % of the non-treated group | significantly lower | rebounded to near the levels of the negative control | 50 to 60% |
